Measurements taken from the NIST ThermoML archive (doi:10.1021/je500381c).
± gives the expanded uncertainty stated by the source.

Experiment: xn = mol fraction of the nth substance listed
Conditions: for mass density / viscosity: 100 kPa, Liquid; for mass density: Vibrating tube method; for surface tension liquid-gas: Drop volume

CC12CC3CC(C1)CC(C)(C3)C2 [1,3-dimethyladamantane] + CCCCCCCO
Conditions | mass density [kg/m3] | surface tension liquid-gas [mN/m] | viscosity [mPa·s]
293.15 K, x2 = 0 | 901.58 ± 0.12 | – | 3.764 ± 0.059
293.15 K, x2 = 0.1001 | 895.5 ± 0.12 | – | 3.692 ± 0.057
293.15 K, x2 = 0.199 | 889.11 ± 0.13 | – | 3.788 ± 0.059
293.15 K, x2 = 0.2998 | 882.35 ± 0.13 | – | 3.972 ± 0.062
293.15 K, x2 = 0.3997 | 875.32 ± 0.13 | – | 4.181 ± 0.065
293.15 K, x2 = 0.4997 | 867.82 ± 0.13 | – | 4.522 ± 0.071
293.15 K, x2 = 0.6002 | 859.93 ± 0.14 | – | 4.92 ± 0.077
293.15 K, x2 = 0.7 | 851.41 ± 0.14 | – | 5.419 ± 0.085
293.15 K, x2 = 0.7996 | 842.45 ± 0.15 | – | 5.924 ± 0.093
293.15 K, x2 = 0.8999 | 832.71 ± 0.15 | – | 6.447 ± 0.1
298.15 K, x2 = 0 | 898.04 ± 0.12 | 27.88 ± 0.15 | 3.345 ± 0.052
298.15 K, x2 = 0.1001 | 891.87 ± 0.12 | 27.82 ± 0.15 | 3.271 ± 0.051
298.15 K, x2 = 0.199 | 885.48 ± 0.13 | – | 3.342 ± 0.052
298.15 K, x2 = 0.1997 | – | 27.69 ± 0.15 | –
298.15 K, x2 = 0.2998 | 878.72 ± 0.13 | 27.48 ± 0.16 | 3.475 ± 0.054
298.15 K, x2 = 0.3997 | 871.68 ± 0.13 | 27.35 ± 0.16 | 3.686 ± 0.057
298.15 K, x2 = 0.4997 | 864.19 ± 0.14 | 27.15 ± 0.16 | 3.909 ± 0.061
298.15 K, x2 = 0.6002 | 856.3 ± 0.14 | 27.02 ± 0.16 | 4.218 ± 0.066
298.15 K, x2 = 0.7 | 847.82 ± 0.14 | 26.79 ± 0.16 | 4.611 ± 0.072
298.15 K, x2 = 0.7996 | 838.88 ± 0.15 | 26.56 ± 0.16 | 5.028 ± 0.079
298.15 K, x2 = 0.8999 | 829.21 ± 0.15 | 26.36 ± 0.16 | 5.454 ± 0.086
303.15 K, x2 = 0 | 894.48 ± 0.12 | – | 3.004 ± 0.047
303.15 K, x2 = 0.1001 | 888.23 ± 0.12 | – | 2.913 ± 0.045
303.15 K, x2 = 0.199 | 881.84 ± 0.13 | – | 2.963 ± 0.046
303.15 K, x2 = 0.2998 | 875.06 ± 0.13 | – | 3.066 ± 0.048
303.15 K, x2 = 0.3997 | 868.01 ± 0.13 | – | 3.238 ± 0.051
303.15 K, x2 = 0.4997 | 860.52 ± 0.14 | – | 3.414 ± 0.053
303.15 K, x2 = 0.6002 | 852.65 ± 0.14 | – | 3.657 ± 0.057
303.15 K, x2 = 0.7 | 844.21 ± 0.14 | – | 3.967 ± 0.062
303.15 K, x2 = 0.7996 | 835.28 ± 0.15 | – | 4.304 ± 0.067
303.15 K, x2 = 0.8999 | 825.66 ± 0.16 | – | 4.649 ± 0.073
308.15 K, x2 = 0 | 890.92 ± 0.12 | – | 2.711 ± 0.042
308.15 K, x2 = 0.1001 | 884.58 ± 0.12 | – | 2.609 ± 0.041
308.15 K, x2 = 0.199 | 878.15 ± 0.13 | – | 2.642 ± 0.041
308.15 K, x2 = 0.2998 | 871.37 ± 0.13 | – | 2.721 ± 0.042
308.15 K, x2 = 0.3997 | 864.33 ± 0.13 | – | 2.862 ± 0.045
308.15 K, x2 = 0.4997 | 856.84 ± 0.14 | – | 3 ± 0.047
308.15 K, x2 = 0.6002 | 848.97 ± 0.14 | – | 3.194 ± 0.05
308.15 K, x2 = 0.7 | 840.56 ± 0.15 | – | 3.439 ± 0.054
308.15 K, x2 = 0.7996 | 831.66 ± 0.15 | – | 3.711 ± 0.058
308.15 K, x2 = 0.8999 | 822.07 ± 0.16 | – | 3.992 ± 0.063
313.15 K, x2 = 0 | 887.35 ± 0.12 | – | 2.458 ± 0.038
313.15 K, x2 = 0.1001 | 880.92 ± 0.13 | – | 2.347 ± 0.037
313.15 K, x2 = 0.199 | 874.46 ± 0.13 | – | 2.366 ± 0.037
313.15 K, x2 = 0.2998 | 867.67 ± 0.13 | – | 2.427 ± 0.038
313.15 K, x2 = 0.3997 | 860.62 ± 0.13 | – | 2.542 ± 0.04
313.15 K, x2 = 0.4997 | 853.13 ± 0.14 | – | 2.653 ± 0.041
313.15 K, x2 = 0.6002 | 845.27 ± 0.14 | – | 2.807 ± 0.044
313.15 K, x2 = 0.7 | 836.88 ± 0.15 | – | 3.001 ± 0.047
313.15 K, x2 = 0.7996 | 828.01 ± 0.15 | – | 3.22 ± 0.051
313.15 K, x2 = 0.8999 | 818.46 ± 0.16 | – | 3.45 ± 0.054
318.15 K, x2 = 0 | 883.77 ± 0.12 | – | 2.237 ± 0.035
318.15 K, x2 = 0.1001 | 877.24 ± 0.13 | – | 2.121 ± 0.033
318.15 K, x2 = 0.199 | 870.75 ± 0.13 | – | 2.129 ± 0.033
318.15 K, x2 = 0.2998 | 863.95 ± 0.13 | – | 2.175 ± 0.034
318.15 K, x2 = 0.3997 | 856.89 ± 0.14 | – | 2.269 ± 0.035
318.15 K, x2 = 0.4997 | 849.4 ± 0.14 | – | 2.359 ± 0.037
318.15 K, x2 = 0.6002 | 841.54 ± 0.14 | – | 2.481 ± 0.039
318.15 K, x2 = 0.7 | 833.18 ± 0.15 | – | 2.636 ± 0.041
318.15 K, x2 = 0.7996 | 824.33 ± 0.15 | – | 2.813 ± 0.044
318.15 K, x2 = 0.8999 | 814.8 ± 0.16 | – | 3.002 ± 0.047
323.15 K, x2 = 0 | 880.19 ± 0.12 | – | 2.045 ± 0.032
323.15 K, x2 = 0.1001 | 873.55 ± 0.13 | – | 1.925 ± 0.03
323.15 K, x2 = 0.199 | 867.02 ± 0.13 | – | 1.925 ± 0.03
323.15 K, x2 = 0.2998 | 860.2 ± 0.13 | – | 1.958 ± 0.031
323.15 K, x2 = 0.3997 | 853.14 ± 0.14 | – | 2.035 ± 0.032
323.15 K, x2 = 0.4997 | 845.65 ± 0.14 | – | 2.107 ± 0.033
323.15 K, x2 = 0.6002 | 837.79 ± 0.14 | – | 2.205 ± 0.035
323.15 K, x2 = 0.7 | 829.46 ± 0.15 | – | 2.329 ± 0.037
323.15 K, x2 = 0.7996 | 820.62 ± 0.15 | – | 2.472 ± 0.039
323.15 K, x2 = 0.8999 | 811.12 ± 0.16 | – | 2.626 ± 0.041
328.15 K, x2 = 0 | 876.6 ± 0.13 | – | 1.876 ± 0.029
328.15 K, x2 = 0.1001 | 869.84 ± 0.13 | – | 1.754 ± 0.027
328.15 K, x2 = 0.199 | 863.27 ± 0.13 | – | 1.745 ± 0.027
328.15 K, x2 = 0.2998 | 856.43 ± 0.13 | – | 1.769 ± 0.028
328.15 K, x2 = 0.3997 | 849.36 ± 0.14 | – | 1.833 ± 0.029
328.15 K, x2 = 0.4997 | 841.86 ± 0.14 | – | 1.891 ± 0.03
328.15 K, x2 = 0.6002 | 834.01 ± 0.14 | – | 1.97 ± 0.031
328.15 K, x2 = 0.7 | 825.68 ± 0.15 | – | 2.069 ± 0.032
328.15 K, x2 = 0.7996 | 816.87 ± 0.15 | – | 2.184 ± 0.034
328.15 K, x2 = 0.8999 | 807.4 ± 0.16 | – | 2.311 ± 0.036
333.15 K, x2 = 0 | 873.01 ± 0.13 | – | 1.728 ± 0.027
333.15 K, x2 = 0.1001 | 866.11 ± 0.13 | – | 1.603 ± 0.025
333.15 K, x2 = 0.199 | 859.5 ± 0.13 | – | 1.589 ± 0.025
333.15 K, x2 = 0.2998 | 852.63 ± 0.13 | – | 1.605 ± 0.025
333.15 K, x2 = 0.3997 | 845.56 ± 0.14 | – | 1.658 ± 0.026
333.15 K, x2 = 0.4997 | 838.05 ± 0.14 | – | 1.704 ± 0.027
333.15 K, x2 = 0.6002 | 830.19 ± 0.15 | – | 1.767 ± 0.028
333.15 K, x2 = 0.7 | 821.88 ± 0.15 | – | 1.847 ± 0.029
333.15 K, x2 = 0.7996 | 813.08 ± 0.16 | – | 1.938 ± 0.03
333.15 K, x2 = 0.8999 | 803.64 ± 0.16 | – | 2.044 ± 0.032
